Measured values: patent US11249071B2, “Reactivation of x chromosome genes” (CALIFORNIA INSTITUTE OF TECHNOLOGY, priority 2015, dated 2022)
Entries after “also recorded” stand apart in the source; their conditions may differ.

System: MLF cells having silenced X genes
Assay: X-chromosome reactivation assay (single molecule RNA FISH) in MLF cells treated with inhibitors
Assay type: cell-based
Settings: mouse MLF cells, HDAC3 inhibitor alone (Scriptaid 100 nM), 48 hours, FIGS. 7A-7B
Method: 5,000 Mouse MLF cells were plated on a poly-D-lysine (Sigma) and 0.2% gelatin (Sigma)-coated #1.5 coverslip placed into wells of a 24-well plate containing HEK media (DMEM, 10% Gemini Benchmark FBS, 1×L-glutamine, 1× sodium pyruvate, 1×NEAA, 1× Pen/Strep; Life Technologies unless otherwise indicated). After 16 hours, inhibitors were added into the media and incubated the cells for 48 hours. The inhibitors and the concentration used were: 5-Azacytidine (6 μM; Sigma, A2385), 5-Aza-2′-deoxycytidine ([…]; Sigma, A3656), RG 108 (200 μM; Abcam, ab141013), Trichostatin A (5 μM; Sigma, T8552), and Scriptaid (100 nM; Sigma, S7817).
Coverslips from siRNA transfection or inhibitor treatment were fixed in Histochoice (Sigma) for 10 min, washed thoroughly in PBS, and dehydrated in ethanol for storage until FISH staining. Single molecule RNA Fluorescence in situ hybridization (FISH) experiments were done using QuantiGene ViewRNA ISH Cell Assay (Affymetrix) and QuantiGene ViewRNA ISH Cell 740 Module (Affymetrix) according to manufacturer's protocol. […]
Cells were stained for target mRNAs and siRNA-targeted mRNA by FISH and imaged. Images were then analyzed using Matlab R2013b (described below). […] Within these cells, the copy number of target mRNAs were quantified using a peak finding method (described below) and compared across conditions. The mRNA levels were quantified for 50 individual cells. […]

O=C(CCCCCN1C(=O)c2cccc3cccc(c23)C1=O)NO [Scriptaid]
expression / reactivation of the Xist-dependent silenced Gpc4 gene, measured by levels of Gpc4 mRNA: resulting in expression of Gpc4; also recorded: resulting in the reactivation of the Xist-dependent silent Gpc4 gene
